Source: US20250155452A1, “NLRP3 Variants & Library Screen for NLRP3 Inhibitors with the Same” (BioAge Labs, Inc., priority 2023, published 2025)

Target: T1, MBP-ANLRP3-HIS (Homo sapiens, UniProt Q96P20, K142A)
T1 construct: made in house; host or cells: Sf21 (IPLB-Sf21-AE) insect cells
Test: ATPase activity, ADP-Glo Kinase Assay (Promega)
Format: biochemical
Conditions: read-out: Km of ATP
Protocol: Peptide mass fingerprinting confirmed the protein identity while intact mass analysis confirmed the overall integrity of the protein and indicated the loss of the amino-terminal methionine. The theoretical molecular weight and isoelectric point (pI) of MBP-NLRP3-HIS are 145.30 kDa and 6.2, respectively. […] MBP-ANLRP3-HIS protein functionality was assessed based on ATPase activity using an ADP-Glo Kinase Assay (Promega). […] This protein construct was shown via its ATPase activity to have acceptable stability up to 2 hours in conditions mimicking one round of selection in the DEL screen.

Question: With `Nc1ncnc2c1ncn2[C@@H]1O[C@H](COP(=O)(O)OP(=O)(O)OP(=O)(O)O)[C@@H](O)[C@H]1O` [ATP] as the compound, how does the Km read?
Answer: Its Km is 3.08 µM.
